These results are taken from ChEMBL document CHEMBL5465560, “Selectivity Literature for EUbOPEN Chemogenomic Library” (2024).

One assay deals with Misshapen-like kinase 1 (Homo sapiens, UniProt Q8N4C8). The experiment in a line: Selectivity interaction (Kinase panel (Z-LYTE Assay)) EUB0001632a MINK1. As to conditions: at 10 µM.
For assay [1], the target named is T1, Dual specificity mitogen-activated protein kinase kinase 4 (Homo sapiens) (UniProt P45985).
T1 sequence (whole entry): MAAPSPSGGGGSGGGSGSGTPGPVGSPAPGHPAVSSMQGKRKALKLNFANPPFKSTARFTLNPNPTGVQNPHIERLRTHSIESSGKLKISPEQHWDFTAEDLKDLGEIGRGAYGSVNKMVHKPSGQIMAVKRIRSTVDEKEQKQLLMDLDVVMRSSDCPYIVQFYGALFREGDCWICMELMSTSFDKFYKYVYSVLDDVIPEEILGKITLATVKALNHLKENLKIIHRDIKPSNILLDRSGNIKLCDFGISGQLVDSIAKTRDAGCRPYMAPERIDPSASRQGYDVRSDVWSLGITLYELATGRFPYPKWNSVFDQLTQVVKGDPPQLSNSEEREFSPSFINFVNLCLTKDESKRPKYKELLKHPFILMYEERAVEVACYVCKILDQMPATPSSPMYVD
Put plainly: Selectivity interaction (Ambit KINOMEscan and KiNATiv profiling in Jurkat cells) EUB0000090b MAP2K4. The note with it: at 1 µM. The assay is classed as cell-based.

In assay [2] the target is T2, N-lysine methyltransferase KMT5A (Homo sapiens) (UniProt Q9NQR1).
T2 sequence (whole entry): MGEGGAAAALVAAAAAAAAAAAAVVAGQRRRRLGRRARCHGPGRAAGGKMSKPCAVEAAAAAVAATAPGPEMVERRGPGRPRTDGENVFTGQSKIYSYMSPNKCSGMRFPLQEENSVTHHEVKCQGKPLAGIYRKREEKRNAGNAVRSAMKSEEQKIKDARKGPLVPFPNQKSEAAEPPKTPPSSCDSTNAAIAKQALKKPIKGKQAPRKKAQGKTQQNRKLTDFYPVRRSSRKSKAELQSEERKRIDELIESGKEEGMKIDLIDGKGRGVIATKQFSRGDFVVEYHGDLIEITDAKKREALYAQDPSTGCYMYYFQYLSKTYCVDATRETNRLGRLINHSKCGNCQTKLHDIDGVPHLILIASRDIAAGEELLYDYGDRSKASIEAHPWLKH
Put plainly: Selectivity interaction (Methyltransferase screen (radiometric assays, panel of 8 PRMTs, 21 protein lysine methyltransferases, 3 DNA methyltransferases, and one RNA methyltransferase)) EUB0000271b SETD8.

For assay [3], the target named is Receptor tyrosine-protein kinase erbB-2 (Homo sapiens, UniProt P04626). The experiment in a line: Selectivity interaction (KinomeScan (DiscoverX)) EUB0000607a ERBB2. As to conditions: at 10 µM.
Assay [4] addresses Tyrosine-protein kinase receptor Tie-1 (Homo sapiens) (UniProt P35590). The experiment in a line: Selectivity interaction (KinomeScan (DiscoverX)) EUB0000666a TIE1. The note with it: at 10 µM.
Assay [5] deals with Serine/threonine-protein kinase 16 (Homo sapiens, UniProt O75716). Put plainly: Selectivity interaction (KinomeScan (DiscoverX)) EUB0000229b STK16. The note with it: at 10 µM.
For assay [6], the target named is T3, Serine/threonine-protein kinase 3 (Homo sapiens) (UniProt Q13188).
T3 sequence (whole entry): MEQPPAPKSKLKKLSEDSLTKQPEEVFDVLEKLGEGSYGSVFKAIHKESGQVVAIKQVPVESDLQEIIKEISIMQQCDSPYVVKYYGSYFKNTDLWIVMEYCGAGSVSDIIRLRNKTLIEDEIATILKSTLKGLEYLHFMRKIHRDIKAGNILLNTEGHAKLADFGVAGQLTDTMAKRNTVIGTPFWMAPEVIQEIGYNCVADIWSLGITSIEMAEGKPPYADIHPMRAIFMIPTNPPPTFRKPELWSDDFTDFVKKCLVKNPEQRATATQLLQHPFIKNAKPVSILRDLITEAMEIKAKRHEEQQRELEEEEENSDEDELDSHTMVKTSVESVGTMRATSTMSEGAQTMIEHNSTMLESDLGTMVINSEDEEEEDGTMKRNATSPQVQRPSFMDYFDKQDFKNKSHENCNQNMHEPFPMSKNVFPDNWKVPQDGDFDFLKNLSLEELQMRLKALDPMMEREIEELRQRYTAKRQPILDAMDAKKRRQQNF
Put plainly: Selectivity interaction (KinomeScan (DiscoverX)) EUB0000655a STK3. As to conditions: at 10 µM.

The target in assay [7] is Mitogen-activated protein kinase 14 (Homo sapiens, UniProt Q16539). Put plainly: Selectivity interaction (KinomeScan (DiscoverX)) EUB0001619a MAPK14. The note with it: at 1 µM.
The target in assay [8] is Tyrosine-protein kinase ABL2 (Homo sapiens, UniProt P42684). Put plainly: Selectivity interaction (ActivX KiNativ screen (kinase selectivity in THP-1 cell lysates)) EUB0000639a ABL2. The assay is classed as subcellular. The note with it: lysate, at 0.2 µM.
The target of assay [9] is STE20-like serine/threonine-protein kinase (Homo sapiens, UniProt Q9H2G2). As to conditions: at 10 µM.
In assay [10] the target is Rho-associated protein kinase 1 (Homo sapiens) (UniProt Q13464). The experiment in a line: Selectivity interaction (KinomeScan (DiscoverX)) EUB0001049a ROCK1. As to conditions: at 1 µM.
Assay [11] deals with Mitogen-activated protein kinase kinase kinase 20 (Homo sapiens) (UniProt Q9NYL2). The experiment in a line: Selectivity interaction (KinomeScan (DiscoverX)) EUB0000695a MAP3K20. As to conditions: at 100 nM.
Assay [12] deals with Serine/threonine-protein kinase 38 (Homo sapiens) (UniProt Q15208). Put plainly: Selectivity interaction (KinomeScan (DiscoverX)) EUB0000045b STK38.
Assay [13] has as its target Calcium/calmodulin-dependent protein kinase type II subunit delta (Homo sapiens) (UniProt Q13557). The experiment in a line: Selectivity interaction (KinomeScan (DiscoverX)) EUB0000045b CAMK2D.
The target of assay [14] is Ephrin type-A receptor 5 (Homo sapiens) (UniProt P54756). Put plainly: Selectivity interaction (KinomeScan (DiscoverX)) EUB0000618a EPHA5. As to conditions: at 10 µM.
Assay [15] addresses Protein kinase C gamma type (Homo sapiens) (UniProt P05129). Put plainly: Selectivity interaction (Upstate Kinase Profiler service (Millipore)) EUB0000056c PRKCG. As to conditions: at 1 µM.

Sequence of Calcium/calmodulin-dependent protein kinase type II subunit delta (Homo sapiens) (Q13557 whole entry): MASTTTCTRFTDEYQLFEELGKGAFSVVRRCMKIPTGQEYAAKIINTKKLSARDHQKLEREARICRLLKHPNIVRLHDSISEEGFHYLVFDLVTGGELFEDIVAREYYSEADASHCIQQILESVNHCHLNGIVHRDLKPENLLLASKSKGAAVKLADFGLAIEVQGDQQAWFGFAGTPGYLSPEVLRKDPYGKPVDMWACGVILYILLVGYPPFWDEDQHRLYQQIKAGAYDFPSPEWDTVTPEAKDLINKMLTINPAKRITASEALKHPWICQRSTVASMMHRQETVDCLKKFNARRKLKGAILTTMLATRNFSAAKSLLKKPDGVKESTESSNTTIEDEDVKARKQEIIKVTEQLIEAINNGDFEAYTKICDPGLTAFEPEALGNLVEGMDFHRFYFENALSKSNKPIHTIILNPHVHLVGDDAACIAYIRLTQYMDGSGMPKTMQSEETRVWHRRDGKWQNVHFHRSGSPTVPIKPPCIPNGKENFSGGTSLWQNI
Sequence of Serine/threonine-protein kinase 38 (Homo sapiens) (Q15208 2-465 limits assumed): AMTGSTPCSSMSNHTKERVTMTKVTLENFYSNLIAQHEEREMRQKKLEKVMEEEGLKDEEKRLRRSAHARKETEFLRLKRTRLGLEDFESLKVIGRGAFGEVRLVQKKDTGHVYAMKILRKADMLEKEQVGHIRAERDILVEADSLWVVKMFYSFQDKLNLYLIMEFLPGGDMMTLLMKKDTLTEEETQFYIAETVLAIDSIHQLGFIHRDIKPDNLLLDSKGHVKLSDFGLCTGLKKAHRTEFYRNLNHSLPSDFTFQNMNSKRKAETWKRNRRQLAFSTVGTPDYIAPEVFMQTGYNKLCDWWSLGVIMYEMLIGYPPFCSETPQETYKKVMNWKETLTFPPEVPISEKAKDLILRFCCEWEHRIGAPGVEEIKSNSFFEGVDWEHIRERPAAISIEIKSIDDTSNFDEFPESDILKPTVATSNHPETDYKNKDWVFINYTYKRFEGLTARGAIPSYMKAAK
Sequence of Mitogen-activated protein kinase kinase kinase 20 (Homo sapiens) (Q9NYL2 2-800 limits assumed): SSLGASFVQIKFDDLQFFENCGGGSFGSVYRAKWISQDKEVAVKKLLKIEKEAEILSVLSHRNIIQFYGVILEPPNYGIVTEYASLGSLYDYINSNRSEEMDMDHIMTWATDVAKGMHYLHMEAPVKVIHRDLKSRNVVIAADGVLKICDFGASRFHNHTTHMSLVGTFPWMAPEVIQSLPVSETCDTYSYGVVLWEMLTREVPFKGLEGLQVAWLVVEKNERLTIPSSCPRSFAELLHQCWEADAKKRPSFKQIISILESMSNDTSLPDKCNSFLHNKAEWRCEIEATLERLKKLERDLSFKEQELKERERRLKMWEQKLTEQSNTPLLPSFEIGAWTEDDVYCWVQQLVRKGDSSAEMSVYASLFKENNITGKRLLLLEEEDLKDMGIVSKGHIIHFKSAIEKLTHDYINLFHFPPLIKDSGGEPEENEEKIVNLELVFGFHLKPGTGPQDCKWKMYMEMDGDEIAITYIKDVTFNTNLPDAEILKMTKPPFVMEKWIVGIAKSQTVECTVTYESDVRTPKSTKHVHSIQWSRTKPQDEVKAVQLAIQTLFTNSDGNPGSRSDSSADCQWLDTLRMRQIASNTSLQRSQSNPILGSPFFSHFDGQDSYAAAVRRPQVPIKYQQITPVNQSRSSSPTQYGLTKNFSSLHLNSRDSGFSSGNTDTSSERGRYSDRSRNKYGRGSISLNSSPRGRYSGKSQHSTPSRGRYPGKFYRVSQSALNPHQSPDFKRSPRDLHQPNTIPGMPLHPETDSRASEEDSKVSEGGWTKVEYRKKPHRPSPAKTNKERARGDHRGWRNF
Sequence of Misshapen-like kinase 1 (Q8N4C8 whole entry, looked up): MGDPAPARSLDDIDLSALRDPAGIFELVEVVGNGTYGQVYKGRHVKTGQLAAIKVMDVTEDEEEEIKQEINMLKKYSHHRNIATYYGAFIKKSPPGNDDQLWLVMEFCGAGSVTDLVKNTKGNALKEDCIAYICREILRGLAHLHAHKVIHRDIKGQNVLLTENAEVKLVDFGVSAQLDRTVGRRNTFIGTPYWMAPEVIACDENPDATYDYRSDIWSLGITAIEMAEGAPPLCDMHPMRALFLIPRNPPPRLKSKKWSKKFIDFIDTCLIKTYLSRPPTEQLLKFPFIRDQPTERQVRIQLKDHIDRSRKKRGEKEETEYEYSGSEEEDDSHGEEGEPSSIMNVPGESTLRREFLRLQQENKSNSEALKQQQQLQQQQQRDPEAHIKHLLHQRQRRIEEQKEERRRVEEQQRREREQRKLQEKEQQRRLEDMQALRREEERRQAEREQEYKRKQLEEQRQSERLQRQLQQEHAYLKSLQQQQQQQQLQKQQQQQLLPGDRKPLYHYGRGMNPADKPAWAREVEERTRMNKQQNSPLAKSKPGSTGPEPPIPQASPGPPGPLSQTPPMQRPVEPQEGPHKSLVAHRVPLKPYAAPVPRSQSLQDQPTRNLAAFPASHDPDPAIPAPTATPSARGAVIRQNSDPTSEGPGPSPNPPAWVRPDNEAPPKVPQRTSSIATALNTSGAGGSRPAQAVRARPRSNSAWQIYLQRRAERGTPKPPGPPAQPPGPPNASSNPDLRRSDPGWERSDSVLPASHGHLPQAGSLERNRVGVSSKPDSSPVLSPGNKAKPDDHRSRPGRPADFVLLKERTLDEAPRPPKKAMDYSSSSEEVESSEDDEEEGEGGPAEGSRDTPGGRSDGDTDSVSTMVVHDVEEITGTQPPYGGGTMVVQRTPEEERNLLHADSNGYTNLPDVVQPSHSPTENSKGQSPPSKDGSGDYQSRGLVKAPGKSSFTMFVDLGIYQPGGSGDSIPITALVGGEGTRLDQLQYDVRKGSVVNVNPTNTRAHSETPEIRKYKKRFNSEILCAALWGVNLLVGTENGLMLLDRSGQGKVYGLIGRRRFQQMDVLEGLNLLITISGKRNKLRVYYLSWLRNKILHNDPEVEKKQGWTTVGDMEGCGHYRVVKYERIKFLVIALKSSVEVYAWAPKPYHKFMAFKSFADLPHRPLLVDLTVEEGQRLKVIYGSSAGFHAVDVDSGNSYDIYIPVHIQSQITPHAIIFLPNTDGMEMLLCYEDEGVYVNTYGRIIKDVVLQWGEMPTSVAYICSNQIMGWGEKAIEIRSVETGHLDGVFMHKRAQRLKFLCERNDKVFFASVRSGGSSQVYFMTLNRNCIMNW
Sequence of Tyrosine-protein kinase receptor Tie-1 (Homo sapiens) (P35590 whole entry): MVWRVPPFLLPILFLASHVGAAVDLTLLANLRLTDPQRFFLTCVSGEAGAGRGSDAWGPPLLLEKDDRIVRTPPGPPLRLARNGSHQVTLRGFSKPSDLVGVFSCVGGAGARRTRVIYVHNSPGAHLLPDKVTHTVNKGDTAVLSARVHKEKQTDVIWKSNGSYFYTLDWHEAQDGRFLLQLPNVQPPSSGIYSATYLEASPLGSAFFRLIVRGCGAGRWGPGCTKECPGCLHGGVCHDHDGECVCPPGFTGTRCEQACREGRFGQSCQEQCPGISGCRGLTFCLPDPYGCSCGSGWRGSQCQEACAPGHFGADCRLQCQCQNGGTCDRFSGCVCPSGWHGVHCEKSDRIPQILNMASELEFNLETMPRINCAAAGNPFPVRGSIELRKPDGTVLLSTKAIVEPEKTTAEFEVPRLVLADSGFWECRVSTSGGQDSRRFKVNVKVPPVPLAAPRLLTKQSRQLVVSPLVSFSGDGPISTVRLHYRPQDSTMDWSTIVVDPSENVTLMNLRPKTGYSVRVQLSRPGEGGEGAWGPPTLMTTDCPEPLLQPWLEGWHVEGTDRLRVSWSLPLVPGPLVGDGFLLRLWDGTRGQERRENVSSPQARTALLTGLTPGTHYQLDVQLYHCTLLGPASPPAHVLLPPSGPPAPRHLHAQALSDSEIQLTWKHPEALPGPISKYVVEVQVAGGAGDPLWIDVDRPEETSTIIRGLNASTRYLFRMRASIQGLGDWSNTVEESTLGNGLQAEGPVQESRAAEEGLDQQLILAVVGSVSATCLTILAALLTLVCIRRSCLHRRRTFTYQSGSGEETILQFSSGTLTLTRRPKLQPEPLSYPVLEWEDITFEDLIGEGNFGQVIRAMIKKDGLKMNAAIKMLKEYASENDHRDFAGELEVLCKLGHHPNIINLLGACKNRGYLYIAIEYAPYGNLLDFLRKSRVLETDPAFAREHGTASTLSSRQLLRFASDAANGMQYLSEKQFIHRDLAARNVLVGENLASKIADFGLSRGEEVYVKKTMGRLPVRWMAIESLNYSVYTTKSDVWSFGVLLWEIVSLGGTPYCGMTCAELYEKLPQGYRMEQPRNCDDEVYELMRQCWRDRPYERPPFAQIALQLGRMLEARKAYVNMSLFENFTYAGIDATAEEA

As for `Cn1cc(-n2cnc3c(NCc4nc5cc(Cl)c(Cl)cc5[nH]4)nc(N4CCOCC4)nc32)cn1`, at Misshapen-like kinase 1, the % of control was -3.28%.

As to `CN(C)C/C=C/C(=O)Nc1ccc(C(=O)N2CCCC(Nc3ncc(Cl)c(-c4c[nH]c5ccccc45)n3)C2)cc1` (centres undefined), in assay [1], the % of control came out at 70%.

As for `Cc1cc(C)cc([C@@H]2c3cc(C)ccc3NC(=O)CN2C(=O)c2ccc(Br)s2)c1`, the % of activity stood at 101% in assay [2] (at 1 µM) and 92% in [2] (at 10 µM).

In the case of `CNC(=O)Nc1ccc(-c2nc(N3CC4CCC(C3)O4)c3cnn(C4CCC5(CC4)OCCO5)c3n2)cc1`, the % of control in [3] turned out to be 88%.

Consider `O=C(NOC[C@H](O)CO)c1ccc(F)c(F)c1Nc1ccc(I)cc1F`, for which the % of control in assay [4] worked out at 54%.

`COc1cc(N(C)c2ccnc3ccc(C(F)(F)F)cc23)cc(OC)c1OC` came in with a % binding in [5] of 90%.

As for `CN(C)CCOc1ccc(-c2nc(-c3ccncc3)c(-c3ccc4c(c3)CC/C4=N\O)[nH]2)cc1`, in assay [6], the % of control worked out at 88%.

With `N#Cc1cccc(-c2c[nH]c3ncnc(N4CCOCC4)c23)c1`, the % of control in [7] is 100%.

In the case of `CC[C@@H]1[C@H](F)C(=O)N[C@@H]1COc1nccc2cc(C(N)=O)c(OC)cc12` [ZIMLOVISERTIB], the % of inhibition in assay [8] was -42.6%.

Consider `CCN(CC)CCCCNc1ncc2cc(-c3cc(OC)cc(OC)c3)c(NC(=O)NC(C)(C)C)nc2n1`, for which the % of control in assay [9] came out at 100%.

On to `COc1cc(Nc2nc(C)cc(-c3cnn4nc(OC)ccc34)n2)cc(C(F)(F)F)c1`, for which the % of control in [10] was determined as 99%.

Regarding `Cc1cc(F)c(C(=O)Nc2cccc(-c3nncn3C(C)C)n2)cc1-n1cnc(C2CC2)c1`, the % of control in assay [11] was 96%.

Take `C=CC(=O)Nc1cc(-n2c(=O)ccc3cnc4ccc(-c5ccc(NS(C)(=O)=O)cc5)cc4c32)ccc1C`: the % of control is 100% in assay [12] (at 1 µM), 100% in assay [12] (at 10 µM), 100% in [13] (at 1 µM) and 92% in assay [13] (at 10 µM).

As for `O[C@H]1CC[C@H](Nc2ncc3nc(Nc4c(F)cc(F)cc4F)n([C@H]4CCOC4)c3n2)CC1`, the % of control in assay [14] was 100%.

Regarding `Cc1ccc(-c2ccc3c(ccc4sc5c(c43)NC[C@@H](C)NC5=O)n2)cn1`, the % of inhibition in assay [15] amounted to 17%.
